Where a name gives a salt, the structure may show the parent alone.

The values that follow come from US20260232752A1, “COMBINATION THERAPY METHODS, COMPOSITIONS AND KITS” (Accure Therapeutics, S.L., priority 2019, published 2026).

For assay [1], the system named is human neuroblastoma cell line SH-SY5Y. Nature of the assay: Neuroprotection against H2O2 oxidative stress, MTT assay. The class given is cell-based. The following applies: 1 hour preincubation at 0.03-40 μM, then H2O2 15 μM 30 minutes. How it is done: The objective of the study was to test the possible synergistic effect of the BN201-monomethylfumarate salt in a neuroprotective assay. Thus, BN201-monomethylfumarate salt obtained as indicated in example 5, was tested for its ability to protect the human neuroblastoma cell line SH-SY5Y against death induced by oxidative stress (i.e., hydrogen peroxide (H202)) using an MTT (3-(4,5-dimethylthiazol-2-yl)-2,5-diphenyltetrazolium bromide) cell proliferation assay.
SH-SY5Y cells were cultivated in 50% Eagle's minimum essential medium (EMEM), 50% Ham's F12 Nutrient Mixture, 10% fetal bovine serum (FBS), 2 mM L-Glu, and 1% penicillin/streptomycin. All of the cell cultures were maintained in a humidified incubator at 5% CO2 and at 37° C. SH-SY5Y cells were preincubated for 1 hour with BN201 alone, monomethyl fumarate alone, or BN201-monomethylfumarate salt at various concentrations (n=5; concentrations: 0.03 μM, 0.1 μM, 0.3 μM, 0.5 μM, 1 μM, 3 μM, 5 μM, 10 μM, 20 μM, 40 μM) and then H2O2 (15 μM) was added to induce stress. Preincubation with sodium pyruvate (10 mM) was used as a positive control. After 30 minutes of H2O2 incubation, the medium was changed and thiazolyl blue tetrazolium bromide (MTT; Sigma Aldrich; stock concentration 10 mg/ml) was added to each well at the final concentration of 0.5 mg/ml. After 2 hours of MTT incubation the cell medium was removed, and cells were resuspended in pure dimethyl sulfoxide (DMSO). Cell viability was determined by reading the absorbance at 570 nm. Each experiment was performed in quintuplicate.
A general note: Tetrazolium assays rely on reduction of a dye to a coloured formazan, in cell work by metabolically active cells.

Assay [2] concerns non-obese diabetic mouse model of relapsing-remitting EAE. To be noted: cited from earlier work.
The test system of assay [3] is rat model of experimental autoimmune encephalomyelitis (EAE). To be noted: cited from earlier work.
For assay [4], the system named is EAE in C57BL6 mice immunized with MOG35-55. The assay is described as follows: Example 3: BN201 and DMF combination, progression of chronic EAE. To be noted: DMF 10 mg/kg oral alone (suboptimal), once a day six days per week from day 15. The assay is classed as in vivo, mouse. How it is done:
Effect in the animal model of MS (i.e., EAE in C57BL6 mice immunized with MOG35-55), similar to Example 2.
Starting on day 15, mice were administered: • dimethyl fumarate (DMF) (group A, 10 mice), • BN201 (group B, 10 mice) • a combination thereof (group C, 10 mice) once a day for six days per week at suboptimal dosages (10 mg/kg for DMF, 25 mg/kg for BN201).
DMF was administered orally with a rigid cannula in a saline vehicle at a volume of 10 mL/kg, while BN201 was administered via i.p. injection in a saline vehicle at a volume of 5 mL/kg. Control mice received vehicle only via both oral and i.p. injection (group D, 10 mice) or nothing at all (group E, 2 mice).
The objective of the study was to evaluate the efficacy and safety of combination therapy with suboptimal doses of BN201 (25 mg/kg) and dimethyl-fumarate (DMF) (10 mg/kg) in the progression of chronic EAE in mice.
During a one week acclimation period starting on day −7, mice were distributed based on body weight stratification into different experimental groups. On day 0, mice were immunized subcutaneously in both hind pads with 150 μg of MOG peptide 35-55 (Spikem, Firenze) emulsified with 50 μg of Mycobacterium tuberculosis (H37Ra strain; Difco, Detroit, MI) in incomplete Freund's adjuvant (IFA). […]

In assay [5] the test system is experimental autoimmune encephalomyelitis (EAE) mouse model. Nature of the assay: Study EAE-C05: clinical score in EAE mouse model with active comparators. The assay is classed as in vivo. To be noted: 2 mg/kg daily, after 5 days of treatment. How it is done:
A second experiment (Study EAE-C05) was then performed using the same mouse model.
Study EAE-C05: In addition to two dose levels of BN201 and a placebo-treated group (pathological control group), the study design introduced two active comparators, dimethyl fumarate (DMF) and fingolimod (FTY720), and a sham group (group in which animals were manipulated as the pathological group but without MOG injection). All groups were administered daily. • sham control non-diseased placebo-treated animals (healthy control group); • EAE-affected placebo-treated animals (pathological control group); • EAE-affected animals treated orally with 15 mg/kg of DMF; • EAE-affected animals treated with 2 mg/kg of FTY720; • EAE-affected animals treated with BN201 at 50 or 100 mg/kg.
(§1) Clinical scores were assigned to assess disease severity using the following scale: 0=normal; 0.5=Partial tail paralysis; 1=Complete tail paralysis; 1.5=Tail paralysis and loss of righting reflex; 2=Partial hind limb paralysis/paralysis of one limb; 2.5=One limb paralysis and partial loss of activity of one other limb; 3=Bilateral hind limb paralysis; 4=Moribund; 5=exitus.
Therapeutic treatment was initiated on day 12 or 13, once each mouse started showing complete tail paralysis (Score 1).

The test system is the same in assay [6]. Nature of the assay: Study EAE-C06: dose response of BN201, clinical score in EAE mouse model. The assay is classed as in vivo. The following applies: 2 mg/kg daily, almost all days of observation/treatment (Day 2 to day 30). How it is done: A third experiment (Study EAE-C06) to test dose response of BN201 was then performed using the same mouse model.
Study EAE-C06: five different concentrations of BN201: 12.5 mg/kg, 25 mg/kg, 50 mg/kg, 100 mg/kg, and 150 mg/kg. Also sham, pathological control and FTY720 (2 mg/kg) comparator groups were included in the experiment. All groups were administered daily.
as §1
Therapeutic treatment was initiated on day 12 once each mouse started showing complete tail paralysis (Score 1).
Data are depicted in FIG. 1 (C), wherein the clinical score for each of the tested groups is plotted per day after disease onset.

Assay [7] has as its system EAE in C57BL6 mice immunized with MOG35-55. The assay is described as follows: Example 4: BN201 and STAT3 inhibitor combination, chronic phase of EAE. The assay is classed as in vivo, mouse. The following applies: S31-201 5 mg/kg i.p. alone (optimal), from day 34 to day 54. On the procedure: Effect during the chronic phase of the disease in the animal model of Multiple Sclerosis (i.e., EAE in C57BL6 mice immunized with MOG35-55)
Efficacy and safety of combination therapy with optimal doses of BN201 (50 mg/kg) and S31-201 (5 mg/kg) in the progression of chronic EAE in mice.
Starting the chronic phase of the disease (by day 34) mice were administered: • the STAT3 inhibitor S31-201 (group A, 7 mice), • BN201 (group B, 6 mice), or • a combination thereof (group C, 6 mice) once a day for six days per week at optimal dosages (5 mg/kg for S31-201, 50 mg/kg for BN201).
S31-201 and BN201 were administered via i.p. injection in a saline vehicle at a volume of 5 mL/kg. Control mice received vehicle only via both oral and i.p. injection (group D, 6 mice) or nothing at all (group E, 2 mice). Mice were treated from day 34 (chronic EAE stage) until the end of the experiment on day 54.
The combination of BN201 and the STAT3-inhibitor S31-201 was evaluated for its effect during the chronic phase of the disease in the animal model of Multiple Sclerosis (i.e., EAE in C57BL6 mice immunized with MOG35-55). The objective of the study was to evaluate the efficacy and safety of combination therapy with optimal doses of BN201 (50 mg/kg) and 531-201 (5 mg/kg) in the progression of chronic EAE in mice. […]

As to `CC(C)CN(CC(=O)N(CCCN1CCCC1=O)CC(N)=O)C(=O)CNCCc1ccccc1F` [BN201-monomethylfumarate salt], the “cell viability as a percentage compared to the control (protection from death induced by oxidative stress)” value in assay [1] is listed as “increased”; in assay [1] (listed as BN201-monomethylfumarate), “significantly higher level of neuroprotection than either compound alone”.
With `CCCc1ccc(COc2ccc3c(c2)CCC(CN2CC(C(=O)O)C2)=C3C)c(OC)c1` [Ceralifimod, 1-[[6-[(2-methoxy-4-propylphenyl)methoxy]-1-methyl-3,4-dihydronaphthalen-2-yl]methyl]azetidine-3-carboxylic acid], in assay [2], the disease relapse result was “prevents disease relapse”. Besides, in assay [3], the disease onset entry was “delays disease onset” and the “lymphocyte infiltration of the spinal cord” value is on record as “inhibits lymphocyte infiltration of the spinal cord”.
As for `COC(=O)/C=C/C(=O)OC` [DMF, Dimethyl fumarate, reference compound], in assay [4], the “course of EAE (clinical score) versus placebo” value is “suffered EAE similar to those mice treated with placebo”.
As for `CCCCCCCCc1ccc(CCC(N)(CO)CO)cc1` [FTY720, Fingolimod, reference compound], the “clinical score compared to pathological control group” value in assay [5] is reported as “significantly lower”. Moreover, in assay [6], the clinical score result is reported as “significant amelioration of the clinical score”.
Regarding `Cc1ccc(S(=O)(=O)OCC(=O)Nc2ccc(C(=O)O)c(O)c2)cc1` [S31-201, 2-Hydroxy-4-[[[[(4-methylphenyl)sulfonyl]oxy]acetyl]amino]-benzoic acid, reference compound], the “course of EAE in chronic phase (clinical score)” value in assay [7] is on record as “not efficacious”.
In the case of `COC(=O)/C=C/C(=O)O` [fumarate, fumaric acid monomethyl ester, reference compound], the “cell viability as a percentage compared to the control (protection from death induced by oxidative stress)” value in assay [1] was “partially rescued neurons from death induced by oxidative stress”.
